Results on three compounds are retold here after article PMC4613797 (Journal of medicinal chemistry, 2015).

One may read the EC50 as the concentration that produces a half-maximal response.

Molecules are shown by their SMILES.

For data set [1] the following is noted: mice, up to a dose of 60 µg/kg ref 18, 19; cited from earlier work.
In data set [2] the test system is vitamin D receptor (VDR). Description: Lentiviral VDRE luciferase reporter assay in HaCaT cells. Format: cell-based, human. (In general: A reporter such as luciferase makes a cellular process visible.)
Data set [3] has as its system vitamin D receptor (VDR). Put plainly: Lentiviral VDRE luciferase reporter assay in Caco-2 cells. Format: cell-based.
A further data set has as its system SKMEL 188 melanoma cells. As to conditions: SKMEL 188 melanoma cells ref 6; cited from earlier work.
The target of the next data set is T1, Mouse CYP27B1 (Mus musculus, UniProt O35084).
T1 sequence (O35084 1-507): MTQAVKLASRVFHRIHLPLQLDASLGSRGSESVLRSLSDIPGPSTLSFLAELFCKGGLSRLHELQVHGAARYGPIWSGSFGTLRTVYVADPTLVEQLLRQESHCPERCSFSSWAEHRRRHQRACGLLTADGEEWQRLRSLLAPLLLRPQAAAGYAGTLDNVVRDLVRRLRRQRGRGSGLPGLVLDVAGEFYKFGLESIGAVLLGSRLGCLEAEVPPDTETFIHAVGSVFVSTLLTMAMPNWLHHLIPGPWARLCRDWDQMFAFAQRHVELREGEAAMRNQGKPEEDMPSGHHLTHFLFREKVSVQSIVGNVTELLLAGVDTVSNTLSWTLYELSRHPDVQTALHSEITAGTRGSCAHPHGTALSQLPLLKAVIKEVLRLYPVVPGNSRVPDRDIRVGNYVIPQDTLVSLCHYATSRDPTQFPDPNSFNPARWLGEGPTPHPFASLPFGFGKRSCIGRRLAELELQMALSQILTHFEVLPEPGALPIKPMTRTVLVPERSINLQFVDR
Put plainly: Kinetics of 1α-hydroxylation. The class given is in vitro ADME. To be noted: for Km: 1α-hydroxylation by mouse CYP27B1, phospholipid vesicles, 2 min, ±SE of the curve fit.

Data set [4] relates to IFNγ production by mouse splenocytes. Put plainly: IFNγ inhibition assay in mouse splenocytes. The class given is cell-based. As to conditions: 100 nM, versus control.
The mark [5] stands for this setting: Homo sapiens, 24 h, read-out: VDRE activation (EC50, nM) HaCaT, HaCaT, VDRE-luciferase, 24 h.
Where [6] appears, read: read-out: VDRE activation (EC50, nM) HaCaT, VDRE-luciferase, 24 h.
Setting [7] is: Homo sapiens, Caco-2, 24 h, read-out: VDRE activation (EC50, nM) Caco-2, Caco-2, VDRE-luciferase, 24 h.
[8] abbreviates: read-out: VDRE activation (EC50, nM) Caco-2, Caco-2, VDRE-luciferase, 24 h.

With `C=C1CC[C@H](O)C/C1=C/C=C1\CCC[C@@]2(C)[C@H]1CC[C@@H]2[C@@](C)(O)CCCC(C)C` [20S(OH)D3, 20S-hydroxyvitamin D3], the calcemic activity result in data set [1] was “noncalcemic”.
As to `C=C1CC[C@H](O)C/C1=C/C=C1\CCC[C@@]2(C)[C@H]1CC[C@@H]2[C@@](C)(O)CC[C@@H](O)C(C)C` [Compound 17a, 20S,24R-dihydroxyvitamin D3], the concentration for a half-maximal effect (EC50) in the data set with vitamin D receptor (VDR) [2] (setting [5]), with vitamin D receptor (VDR) [2] (setting [6]), with vitamin D receptor (VDR) [3] (setting [7]) and in the data set with vitamin D receptor (VDR) [3] (setting [8]) was greater than 1000 nM in each case. For the same compound, the “inhibiting colony formation, potency compared with 1,25(OH)2D3” value in the data set on SKMEL 188 melanoma cells was “more potent than 1,25(OH)2D3”. Besides, the Km on Mouse CYP27B1 is given as 7.99 ± 4.01 (mmol of substrate)/(mol of phospholipid). In addition, at Mouse CYP27B1 (mouse CYP27B1, versus 20S,24S(OH)2D3), the “kcat, fold higher than that for the 24S isomer” value was determined as 18 fold. Further, at Mouse CYP27B1 (mouse CYP27B1, versus 20S,24S(OH)2D3, listed as 20S,24R(OH)2D3), the “catalytic efficiency (kcat/Km), fold higher than 20S,24S(OH)2D3” value is recorded as 5 fold.
As for `C=C1CC[C@H](O)C/C1=C/C=C1\CCC[C@@]2(C)[C@H]1CC[C@@H]2[C@@](C)(O)CC[C@H](O)C(C)C` [Compound 17b, 20S,24S-dihydroxyvitamin D3], the EC50 in the data set with vitamin D receptor (VDR) [2] (setting [5]), with vitamin D receptor (VDR) [2] (setting [6]), in the data set on vitamin D receptor (VDR) [3] (setting [7]) and in the data set on vitamin D receptor (VDR) [3] (setting [8]) was greater than 1000 nM throughout. The Km at Mouse CYP27B1 is 2.49 ± 0.59 (mmol of substrate)/(mol of phospholipid). The “effect on production of IFNγ by splenocytes (in words)” value in data set [4] is reported as “slightly increased production”.
